Measurements taken from patent US11077169B2, “Soy-derived bioactive peptides for use in compositions and methods for wound healing, tissue engineering, and regenerative medicine” (Temple University-Of The Commonwealth System of Higher …, priority 2015, dated 2021).

System: HaCaT epithelial cells
Test: wound closure in HaCaT cells with ethanol extracts and estrogen receptor antagonist
Format: cell-based, human

C[C@]12CC[C@@H]3c4ccc(O)cc4C[C@@H](CCCCCCCCC[S+]([O-])CCCC(F)(F)C(F)(F)F)[C@H]3[C@@H]1CC[C@@H]2O (some centres unmarked) [Fluvestrant]
effect on WSsoy-induced wound closure: did not affect | inhibition of SPI-induced wound closure (10 μM antagonist): significantly inhibited
